Structures are written as SMILES. Calls of active or inactive are those of the source. The calls are words filed in the database; no cut-off is given here. Some results are limits rather than exact numbers.

Test [1] has as its system RCC4. In words: Antiproliferative activity against human RCC4 cells incubated for 48 hrs by XTT assay. It counts as functional, cell-based. Particulars: RCC4, 48 h. For orientation: Formazan colour is commonly taken as a measure of viable cells.
A short description of test [2]: Antiproliferative activity against human Cisplatin and radiotherapy resistant CAL33RR cells incubated for 48 hrs by XTT assay. The test is classed as functional, cell-based.
Test [3] deals with A498. In words: Inhibition of cell invasion in human A498 cells cultured as 3D spheroids at 5 uM measured after 7 days by light microscopic imaging analysis relative to control. It counts as functional. As to conditions: A498, 168 h, time 7 day.
Test [4] can be described thus: Antiproliferative activity against human Cisplatin and radiotherapy resistant CAL27RR cells incubated for 48 hrs by XTT assay. It counts as functional, cell-based.
The subject of test [5] is A498. In words: Inhibition of CXCL8-induced cell migration in human A498 cells at 0.5 uM incubated for 24 hrs by crystal violet staining based analysis relative to control. The test is classed as functional.
Test [6] in a line: Antiproliferative activity against human Sunitinib-resistant 786-R cells incubated for 48 hrs by XTT assay. It counts as functional, cell-based.
For test [7], the system named is CAL-27. Briefly: Antiproliferative activity against human CAL-27 cells incubated for 48 hrs by XTT assay. Particulars: CAL-27, 48 h. The test is classed as functional, cell-based.
Test [8] deals with A498. Briefly: Antiproliferative activity against human A498 cells incubated for 48 hrs by XTT assay. It counts as functional, cell-based. Particulars: A498, 48 h.
Test [9] concerns 786-0. Briefly: Antiproliferative activity against human 786-0 cells incubated for 48 hrs by XTT assay. The test is classed as functional, cell-based. Particulars: 786-0, 48 h.
Test [10] relates to CAL-33. Briefly: Antiproliferative activity against human CAL-33 cells incubated for 48 hrs by XTT assay. Particulars: CAL-33, 48 h. The test is classed as functional, cell-based.
Test [11] concerns A498. Briefly: Inhibition of cell invasion in human A498 cells cultured as 3D spheroids at 5 uM measured after 7 days by light microscopic imaging analysis. It counts as functional, cell-based. As to conditions: time 7.0 day.

A word on the IC50: it is the point on the concentration scale where inhibition reaches its midpoint. A higher IC50 goes with weaker potency. A word on the inhibition: it is the change of the read-out against control, counted positive when it falls. In the case of `O=C(Nc1ccc(Cl)cc1)Nc1nc2ccc([N+](=O)[O-])cc2s1`, the IC50 in test [1] was determined as 3 µM; in test [2], 2 µM; in test [4] it was 4 µM; in [6] it was 5 µM; in [7], 5 µM; in test [8] it was 3 µM. In addition, the concentration for half-maximal inhibition (IC50) was determined as 2 µM in test [9] and 2.5 µM in [10]. Besides, the inhibition at 5 µM in [3] is > 75%. Also, in test [5], the inhibition at 0.5 µM was > 50%.

On to `O=C(Nc1cccc(Cl)c1)Nc1nc2ccc(-c3cccc4ccccc34)cc2s1`, for which the IC50 in test [1] is 8 µM; in test [2] it was > 25 µM; in test [4] it was > 25 µM; in [6], 10 µM; in [7] it was > 25 µM; in [8], 5 µM. Also, the results for the concentration for half-maximal inhibition (IC50) in [9] and in test [10] were 7 µM and 12 µM, respectively. Besides, in test [11], the inhibition result is “inactive”.

As for `O=C(Nc1ccc(Br)cc1)Nc1nc2ccc([N+](=O)[O-])cc2s1`, the half-maximal inhibitory concentration (IC50) was found to be 7 µM in test [1]; 5 µM in test [2]; 2.5 µM in test [4]; 5 µM in test [6]; 5 µM in test [7]; 2.5 µM in test [8]. Moreover, the concentration for half-maximal inhibition (IC50) in test [9] came to 5 µM; in test [10] it was 2 µM. Further, the inhibition at 5 µM in test [3] is > 75%. In test [5], the inhibition at 0.5 µM is > 50%.

Regarding `Cc1noc(C)c1-c1ccc2nc(NC(=O)Nc3cccc(Cl)c3)sc2c1`, the 50% inhibitory concentration (IC50) in test [1] came to 5 µM; in [2] it was 3.5 µM; in [4], 2.5 µM; in test [6], 4 µM; in test [7] it was 1 µM; in test [8] it was 3 µM. The IC50 in [9] stood at 2.5 µM; in test [10] it was 3.5 µM. Further, in test [11], the inhibition entry is “Active”.

Take `Cc1nn(C)cc1-c1ccc2nc(NC(=O)Nc3cccc(Cl)c3)sc2c1`: the concentration for half-maximal inhibition (IC50) in [1] was 8 µM; in [2], 7 µM; in test [4], 6 µM; in test [6], 8 µM; in test [7], 7 µM; in test [8], 5 µM. Further, the IC50 in test [9] was determined as 4 µM; in test [10], 6 µM. For the same compound, in test [11], the inhibition result was “Active”.

Source of the values: ChEMBL document CHEMBL5532720, “A Potent Solution for Tumor Growth and Angiogenesis Suppression via an ELR+CXCL-CXCR1/2 Pathway Inhibitor” (ACS Med Chem Lett, 2024).
